Data taken from ChEMBL document CHEMBL1201862, “PubChem BioAssay data set” (2004).
Activity calls are given as the source filed them.

Key:
[1] = kidney cell line viability loss – HEK293T, luminescence plate reader, powder samples, set 4, cytotoxicity control, dose response (AID 651863); type: functional, cell-based; settings: HEK293
[2] = molecular target: Large T antigen (Simian virus 40, UniProt P03070); type: functional, Betapolyomavirus macacae;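 note: Confirmatory-stage PubChem screen for compounds that inhibit SV40 T antigen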
[3] = molecular target: T1, Caspase-6 (Homo sapiens, UniProt P55212); experiment: inhibition of CASP6 peptide cleavage – biochemical, VEID-R110 fluorescence, cherry-pick, dose response (AID 720632)
T1 sequence (P55212 whole entry): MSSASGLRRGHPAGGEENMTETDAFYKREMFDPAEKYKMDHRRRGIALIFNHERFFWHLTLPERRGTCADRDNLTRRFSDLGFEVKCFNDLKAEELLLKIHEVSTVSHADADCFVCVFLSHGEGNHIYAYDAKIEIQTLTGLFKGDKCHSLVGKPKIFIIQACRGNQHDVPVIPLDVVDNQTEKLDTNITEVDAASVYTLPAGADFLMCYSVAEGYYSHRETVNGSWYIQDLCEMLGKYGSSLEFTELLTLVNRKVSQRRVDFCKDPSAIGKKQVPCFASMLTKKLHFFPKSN

[4] = fluconazole-exposed Candida albicans growth modulators – fluorescence, retest, confirmation (AID 2467); type: functional, cell-based
[5] = molecular target: Albumin (Bos taurus, UniProt P02769); experiment: Counterscreen for inhibitors of T-cell receptor (TCR)-CD3 interaction: Fluorescence-based biochemical high throughput dose response assay to identify inhibitors of T-cell receptor (TCR)-CD3 interaction using a TAMRA-labeled BSA probe.; type: functional
[6] = NIH-3T3 fibroblast cytotoxicity, dose response, cytotoxicity control, cell-based, fluorescence, Alamar Blue, secondary assay (AID 2327); type: functional;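 note: NIH-3T3 mouse fibroblasts cultured with fluconazole at 8 µg/mL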
[7] = molecular target: Paired box protein Pax-8 (Homo sapiens, UniProt Q06710); experiment: PAX8 transcriptional activity inhibition in RMG-I – RMG-I cells, luciferase, cherry-pick, dose response (AID 687027); type: functional, cell-based;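 note: luciferase reporter driven by Pax8 target thyroperoxidase promoter measured by SteadyGlo luminescence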
[8] = CMV-driven luciferase expression suppression in HEK293 – cell-based, luminescence, dry powder, counter-screen for Pax8 inhibitor project, dose response (AID 743020); type: functional
[9] = viability loss in HEK293 kidney cells – cell-based, cherry-picks, set 5, cytotoxicity control, dose response (AID 1053117); type: functional
[10] = molecular target: Fatty acid synthase (Homo sapiens, UniProt P49327); experiment: inhibition of human FAS-TE enzyme activity – biochemical, endpoint fluorescence intensity, powder samples, SAR follow-up (AID 652164); type: functional
[11] = molecular target: Endoplasmic reticulum aminopeptidase 1 (Homo sapiens, UniProt Q9NZ08); experiment: inhibition of human ERAP1 enzyme activity – biochemical, cherry-pick, set 2, plate reader, dose response (AID 743314)
[12] = general mammalian cell viability loss – activator set, cherry-pick, cytotoxicity control for miR-122 modulator project, dose response (AID 720690); type: functional, cell-based;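 note: HEK293T human cells scored for general mammalian cytotoxicity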
[13] = dual-tagged ARNT PAS-B bead signal quenchers – biochemical, dry powder, artefact control for ARNT/TACC3 disruptor project, dose response (AID 720564)
[14] = ATP-based viability loss in HeLa cells – cell-based, CellTiter-Glo luminescence, dry powder, set 2, cytotoxicity control, dose response (AID 720593); type: functional
[15] = general mammalian cell viability loss – inhibitor set, cherry-pick, set 2, cytotoxicity control for miR-122 modulator project, dose response (AID 720697); type: functional, cell-based
[16] = viability loss in human hepatoma cells – cell-based, CellTiter-Glo luminescence, cherry-pick, set 2, cytotoxicity control, dose response (AID 743395); type: functional
[17] = test system: BJ; experiment: growth inhibition of engineered Ras-driven BJ cells – cell-based, alamar blue fluorescence, cherrypicked samples, dose response (AID 2631); type: functional; settings: Homo sapiens;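 note: confirmatory dose-response assay in RAS-dependent BJ fibroblasts engineered with TERT, LT and ST, with cytotoxicity read by fluorescence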
[18] = A Cell-Based Confirmatory Screen for Compounds that Inhibit VEEV, TC-83 (3).; type: functional
[19] = NIH3T3 cell viability loss – ATP luminescence, mouse fibroblasts, counter-screen, dose response (AID 2010); type: functional, cell-based;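 note: cells exposed to compound for about 90 hours before reading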
[20] = molecular target: T2, Methionyl-tRNA synthetase, putative (Trypanosoma brucei brucei, UniProt Q38C91); type: functional, Trypanosoma brucei brucei strain 927/4 GUTat10.1
T2 sequence (Q38C91 whole entry): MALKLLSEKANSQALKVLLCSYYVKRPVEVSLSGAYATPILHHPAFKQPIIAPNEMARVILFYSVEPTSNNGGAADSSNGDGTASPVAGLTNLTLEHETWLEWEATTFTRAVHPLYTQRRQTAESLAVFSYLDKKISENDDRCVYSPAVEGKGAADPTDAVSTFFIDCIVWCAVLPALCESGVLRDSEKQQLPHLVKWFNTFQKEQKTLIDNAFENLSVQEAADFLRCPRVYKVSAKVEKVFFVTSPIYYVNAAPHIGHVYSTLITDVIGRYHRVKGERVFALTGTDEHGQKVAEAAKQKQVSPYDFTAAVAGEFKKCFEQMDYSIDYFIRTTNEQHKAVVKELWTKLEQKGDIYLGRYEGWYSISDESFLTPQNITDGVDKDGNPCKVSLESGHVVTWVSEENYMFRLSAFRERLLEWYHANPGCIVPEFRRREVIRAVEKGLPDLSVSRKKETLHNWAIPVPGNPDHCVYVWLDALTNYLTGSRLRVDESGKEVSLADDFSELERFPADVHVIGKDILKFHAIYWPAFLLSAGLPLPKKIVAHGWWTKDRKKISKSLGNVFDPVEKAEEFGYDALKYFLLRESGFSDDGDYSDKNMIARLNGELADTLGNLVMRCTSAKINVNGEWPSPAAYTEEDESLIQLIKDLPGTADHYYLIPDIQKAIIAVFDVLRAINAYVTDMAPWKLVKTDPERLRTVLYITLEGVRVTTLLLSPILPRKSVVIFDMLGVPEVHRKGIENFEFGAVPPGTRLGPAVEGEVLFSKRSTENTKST

[21] = Trypanosoma cruzi growth suppression in host cells – NIH3T3 host cells, beta-gal luminescence, confirmation (AID 2044); type: functional, cell-based;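 note: intracellular parasites grown in NIH/3T3 mouse fibroblasts as host cells; luminescent beta-galactosidase reporter signal from transgenic T. cruzi replicating inside host cells; inhibitors lower the luminescence signal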
[22] = Counterscreen for inhibitors of Trypanosoma brucei methionyl tRNA synthetase (MetRS): Luminescence-based cell-based high throughput dose response assay to identify compounds that are cytotoxic to Jurkat human T lymphocyte cells.; type: functional
[23] = molecular target: T2, Methionyl-tRNA synthetase, putative; type: functional, Trypanosoma brucei brucei strain 927/4 GUTat10.1; remark: listed apart in the source
[24] = molecular target: Disintegrin and metalloproteinase domain-containing protein 17 (Homo sapiens, UniProt P78536); experiment: inhibition of ADAM17 substrate cleavage – biochemical, quenched FRET substrate, counter-screen for ADAM10 exosite inhibitor project, dose response (AID 743253)
[25] = potency of ADAM10 substrate cleavage blockers – biochemical, QFRET, dose response (AID 743254);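 note: ADAM10 enzyme with the DM2 quenched FRET peptide as substrate; EDANS fluorescence gain as the protease cuts the substrate; inhibitor potency against ADAM10 proteolytic activity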
[26] = HGIII-sPLA2 enzyme inhibition potency – biochemical, QFRET, IC50, dose response (AID 743457);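 note: green fluorescence rise as the enzyme cleaves BODIPY PC-A2 in liposomes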
[27] = molecular target: T3, Trace amine-associated receptor 1 (Homo sapiens, UniProt Q96RJ0); experiment: Counterscreen for antagonists of the human trace amine associated receptor 1 (hTAAR1): Fluorescence-based cell-based high throughput dose response assay to identify TAAR1 Agonists.; type: functional
T3 sequence (Q96RJ0 whole entry): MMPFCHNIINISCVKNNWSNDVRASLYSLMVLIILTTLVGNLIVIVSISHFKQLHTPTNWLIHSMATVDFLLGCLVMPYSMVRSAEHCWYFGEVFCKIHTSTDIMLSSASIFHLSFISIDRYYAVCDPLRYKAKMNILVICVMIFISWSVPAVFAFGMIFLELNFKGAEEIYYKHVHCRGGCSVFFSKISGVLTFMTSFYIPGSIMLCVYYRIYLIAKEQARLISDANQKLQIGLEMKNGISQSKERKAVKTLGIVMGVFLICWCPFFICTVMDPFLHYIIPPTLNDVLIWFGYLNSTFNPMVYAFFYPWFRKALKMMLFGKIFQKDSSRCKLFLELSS

[28] = molecular target: T3, Trace amine-associated receptor 1; experiment: Fluorescence-based cell-based high throughput dose response assay to identify antagonists of the human trace amine associated receptor 1 (TAAR1).; type: functional
[29] = Counterscreen for antagonists of the human trace amine associated receptor 1 (hTAAR1): Fluorescence-based cell-based high throughput dose response assay to identify nonselective Ga16 antagonists.; type: functional
[30] = Counterscreen for […] of the human trace amine associated receptor 1 (TAAR1): Fluorescence-based cell-based high throughput dose response assay to identify nonselective Ga16 agonists.; type: functional
[31] = molecular target: Major prion protein (Homo sapiens, UniProt P04156); type: functional, cell-based
[32] = cells
[33] = molecular target: fMet-Leu-Phe receptor (Homo sapiens, UniProt P21462); experiment: formyl peptide receptor binders – dose response (AID 519); type: functional

For COC(=O)C(C(=O)OC)c1cc(NS(=O)(=O)c2c(C)cc(C)cc2C)c2ccccc2c1O, the AC50 [1] was 27 µM (active).
In the case of C/C(=N/NC(=O)c1cc(O)c(O)c(O)c1)c1ccc([N+](=O)[O-])cc1, the IC50 [2] is reported as 8.68 µM (active), the AC50 [3] is reported as 27.5 µM (active) and the EC50 [4] is reported as > 38 µM (not active). The IC50 [5] was > 94.1 µM (inactive) and the EC50 [6] was > 160 µM (inactive).
In the case of C[C@@H]1CCCCO[C@@H](CN(C)C(=O)Nc2ccc(F)cc2)[C@H](C)CN([C@@H](C)CO)C(=O)c2cc(NC(=O)Nc3ccc(C(F)(F)F)cc3)ccc2O1, the AC50 [7] is reported as 4.11 µM (active) and the AC50 [8] is reported as 67.7 µM (active).
In the case of Cc1cccc(NC(=O)c2ccc(S(=O)(=O)N3CCCCC3)cc2)n1, the AC50 [9] is reported as > 52 µM (inactive).
For CC(=O)Nc1nc(-c2ccc(S(=O)(=O)N3CCSCC3)cc2)cs1, the IC50 [10] was > 80 µM (inactive).
In the case of COC(=O)[C@H]1[C@H](CO)[C@H]2Cn3c(ccc(-c4ccncc4)c3=O)[C@H]2N1Cc1ccccc1F, the AC50 [11] is reported as 10.2 µM (active).
In the case of CN[C@H]1C[C@H]2c3[nH]c4ccc(-c5ccc(OC)cc5)cc4c3CCN2C(=O)[C@H]1[C@H](C)O, the AC50 [12] is reported as 15.8 µM (active).
In the case of O=C(Nc1nc(-c2ccncc2)cs1)c1cccc(S(=O)(=O)N2CCOCC2)c1, the AC50 [13] is reported as 110 µM (active) and the AC50 [14] is reported as > 52 µM (inactive).
In the case of CCC(=O)NC[C@@H]1[C@@H](c2ccc(C3=CCCC3)cc2)[C@@H](CO)N1C(C)=O, the AC50 [15] is reported as 9.42 µM (active).
In the case of COc1ccc(C(=O)c2cc([N+](=O)[O-])ccc2N2CCOCC2)cc1, the AbsAC35_uM [16] is reported as 60.09 µM, the AC50 [7] is reported as 3.21 µM (active) and the EC50 [17] is reported as < 0.104 µM (active).
With CC(C)N1CCN(Cc2nc3ccc([N+](=O)[O-])cc3c(=O)n2-c2ccccc2F)CC1 the IC50 [18] was 3.13 µM (active).
For COc1ccccc1NS(=O)(=O)c1cccc(NC(=O)Nc2cccc(Cl)c2)c1, the EC50 [19] was > 60 µM (not active), the IC50 [20] was 15.7 µM (inactive) and the EC50 [21] was 2.16 µM (active). For the same compound, the IC50 [22] was 41.1 µM (inactive), the IC50 [23] was 12 µM (inactive) and the IC50 [24] was > 69.5 µM (inactive). For the same compound, the IC50 [25] was 12 µM (inactive).
With CCCCN=C(S)NNC(=O)c1csc(C)c1C the IC50 [26] was > 122 µM (inactive).
In the case of Cc1cc(/C=N\NC(=O)CC(=O)NC2CCCCC2)c(C)n1-c1ccc(Cl)c(Cl)c1, the EC50 [27] is reported as 7.54 µM (active), the IC50 [28] is reported as 0.915 µM (active) and the IC50 [29] is reported as 15.3 µM (inactive). The EC50 [30] was > 29.9 µM (inactive).
With Cc1cc(NC(=O)CCC(=O)N(c2ccccc2)C(C(=O)NC2CCCC2)c2cccs2)no1 (centres undefined) the IC50 [31] was 16.2 µM (inactive) and the IC50 [32] was > 138 µM (inactive).
For CCC(Sc1nc2c(c(=O)[nH]1)CCC2)C(=O)Nc1cccc(OC)c1 (centres undefined), the Ki [33] was 35.5 µM (inactive).
